# According to ChEMBL document CHEMBL3885881, “DrugMatrix”:
# Species on record: Rattus norvegicus
# Experiment: DrugMatrix - Regimen: Daily Repeat
# Type: toxicity, organism-based, Sprague-Dawley
# Set-up: regimen Daily Repeat, gender Male, age 6-8 weeks
# Conditions: in vivo, po, route oral GAVAGE, vehicle .5 % CMC; for ABSOLUTE BASOPHIL / ABSOLUTE EOSINOPHIL / ABSOLUTE LYMPHOCYTE / ABSOLUTE MONOCYTE / ABSOLUTE SEGMENTED NEUTROPHIL / BASOPHIL / EOSINOPHIL / ERYTHROCYTE COUNT / HEMATOCRIT / HEMOGLOBIN / LEUKOCYTE COUNT / LYMPHOCYTE / MEAN CORPUSCULAR HEMOGLOBIN / MEAN CORPUSCULAR HEMOGLOBIN CONCENTRATION / MEAN CORPUSCULAR VOLUME / MONOCYTE / NEUTROPHIL / NUCLEATED RED BLOOD CELLS / PLATELET COUNT: tissue Blood; for ALANINE AMINOTRANSFERASE / ALBUMIN / ALKALINE PHOSPHATASE / ASPARTATE AMINOTRANSFERASE / BLOOD UREA NITROGEN / CARBON DIOXIDE / CHLORIDE / CHOLESTEROL / CREATINE PHOSPHOKINASE / CREATININE / GLUCOSE / LACTATE DEHYDROGENASE / LIPASE / PHOSPHORUS / POTASSIUM / SODIUM / TOTAL BILIRUBIN / TOTAL PROTEIN / URIC ACID: tissue Plasma
# [1] = 30 mg/kg, 120 h, dose level Low, time 5 day
# [2] = 2000 mg/kg, 72 h, dose level High, time 3 day
# [3] = 2000 mg/kg, 120 h, dose level High, time 5 day
smiles,measurement,setting,value
CCOc1cc(N)c(Cl)cc1C(=O)NCC1CN(Cc2ccc(F)cc2)CCO1 (centres undefined) [MOSAPRIDE],ABSOLUTE BASOPHIL,[1],0 CELLS/uL
same,ABSOLUTE EOSINOPHIL,[1],184 CELLS/uL
same,ABSOLUTE LYMPHOCYTE,[1],14085.33 CELLS/uL
same,ABSOLUTE MONOCYTE,[1],124 CELLS/uL
same,ABSOLUTE SEGMENTED NEUTROPHIL,[1],940 CELLS/uL
same,BASOPHIL,[1],0%
same,EOSINOPHIL,[1],1.33%
same,ERYTHROCYTE COUNT,[1],5.58 x10E6/uL
same,HEMATOCRIT,[1],33.97%
same,HEMOGLOBIN,[1],13.4 G/DL
same,LEUKOCYTE COUNT,[1],15.33 x10E3/uL
same,LYMPHOCYTE,[1],91.33%
same,MEAN CORPUSCULAR HEMOGLOBIN,[1],24.07 pg
same,MEAN CORPUSCULAR HEMOGLOBIN CONCENTRATION,[1],39.43 G/DL
same,MEAN CORPUSCULAR VOLUME,[1],61 fL
same,MONOCYTE,[1],1%
same,NEUTROPHIL,[1],6.33%
same,NUCLEATED RED BLOOD CELLS,[1],0 /100WBC
same,PLATELET COUNT,[1],1230 x10E3/uL
same,ALANINE AMINOTRANSFERASE,[1],47 u/L
same,ALBUMIN,[1],4.27 G/DL
same,ALKALINE PHOSPHATASE,[1],395.67 u/L
same,ASPARTATE AMINOTRANSFERASE,[1],103 u/L
same,BLOOD UREA NITROGEN,[1],14.67 mg/dL
same,CARBON DIOXIDE,[1],21.33 mmol/L
same,CHLORIDE,[1],104.33 MEQ/L
same,CHOLESTEROL,[1],72.33 mg/dL
same,CREATINE PHOSPHOKINASE,[1],763 u/L
same,CREATININE,[1],0.22 mg/dL
same,GLUCOSE,[1],150.33 mg/dL
same,LACTATE DEHYDROGENASE,[1],650.33 u/L
same,LIPASE,[1],9.67 u/L
same,PHOSPHORUS,[1],11.1 mg/dL
same,POTASSIUM,[1],5.84 MEQ/L
same,SODIUM,[1],144.4 MEQ/L
same,TOTAL BILIRUBIN,[1],0.23 mg/dL
same,TOTAL PROTEIN,[1],5.97 G/DL
same,URIC ACID,[1],1.73 mg/dL
same,ABSOLUTE BASOPHIL,[2],0 CELLS/uL
same,ABSOLUTE EOSINOPHIL,[2],82 CELLS/uL
same,ABSOLUTE LYMPHOCYTE,[2],11383.33 CELLS/uL
same,ABSOLUTE MONOCYTE,[2],248.67 CELLS/uL
same,ABSOLUTE SEGMENTED NEUTROPHIL,[2],719.33 CELLS/uL
same,BASOPHIL,[2],0%
same,EOSINOPHIL,[2],0.67%
same,ERYTHROCYTE COUNT,[2],6.66 x10E6/uL
same,HEMATOCRIT,[2],42.47%
same,HEMOGLOBIN,[2],16.67 G/DL
same,LEUKOCYTE COUNT,[2],12.43 x10E3/uL
same,LYMPHOCYTE,[2],91.33%
same,MEAN CORPUSCULAR HEMOGLOBIN,[2],25.07 pg
same,MEAN CORPUSCULAR HEMOGLOBIN CONCENTRATION,[2],39.27 G/DL
same,MEAN CORPUSCULAR VOLUME,[2],63.83 fL
same,MONOCYTE,[2],2%
same,NEUTROPHIL,[2],6%
same,NUCLEATED RED BLOOD CELLS,[2],0 /100WBC
same,PLATELET COUNT,[2],1265 x10E3/uL
same,ALANINE AMINOTRANSFERASE,[2],92.67 u/L
same,ALBUMIN,[2],4.43 G/DL
same,ALKALINE PHOSPHATASE,[2],485 u/L
same,ASPARTATE AMINOTRANSFERASE,[2],204 u/L
same,BLOOD UREA NITROGEN,[2],18 mg/dL
same,CARBON DIOXIDE,[2],19 mmol/L
same,CHLORIDE,[2],95 MEQ/L
same,CHOLESTEROL,[2],234.67 mg/dL
same,CREATINE PHOSPHOKINASE,[2],2551 u/L
same,CREATININE,[2],0.29 mg/dL
same,GLUCOSE,[2],119.67 mg/dL
same,LACTATE DEHYDROGENASE,[2],1110.67 u/L
same,LIPASE,[2],14.67 u/L
same,PHOSPHORUS,[2],14.47 mg/dL
same,POTASSIUM,[2],7.66 MEQ/L
same,SODIUM,[2],141.13 MEQ/L
same,TOTAL BILIRUBIN,[2],0.47 mg/dL
same,TOTAL PROTEIN,[2],6.5 G/DL
same,URIC ACID,[2],2.7 mg/dL
same,ABSOLUTE BASOPHIL,[3],0 CELLS/uL
same,ABSOLUTE EOSINOPHIL,[3],63.33 CELLS/uL
same,ABSOLUTE LYMPHOCYTE,[3],17542.67 CELLS/uL
same,ABSOLUTE MONOCYTE,[3],192.67 CELLS/uL
same,ABSOLUTE SEGMENTED NEUTROPHIL,[3],1468 CELLS/uL
same,BASOPHIL,[3],0%
same,EOSINOPHIL,[3],0.33%
same,ERYTHROCYTE COUNT,[3],6.35 x10E6/uL
same,HEMATOCRIT,[3],38.03%
same,HEMOGLOBIN,[3],14.87 G/DL
same,LEUKOCYTE COUNT,[3],19.27 x10E3/uL
same,LYMPHOCYTE,[3],91%
same,MEAN CORPUSCULAR HEMOGLOBIN,[3],23.37 pg
same,MEAN CORPUSCULAR HEMOGLOBIN CONCENTRATION,[3],39.1 G/DL
same,MEAN CORPUSCULAR VOLUME,[3],59.8 fL
same,MONOCYTE,[3],1%
same,NEUTROPHIL,[3],7.67%
same,NUCLEATED RED BLOOD CELLS,[3],0 /100WBC
same,PLATELET COUNT,[3],1370.33 x10E3/uL
same,ALANINE AMINOTRANSFERASE,[3],101.67 u/L
same,ALBUMIN,[3],4.07 G/DL
same,ALKALINE PHOSPHATASE,[3],465 u/L
same,ASPARTATE AMINOTRANSFERASE,[3],89.67 u/L
same,BLOOD UREA NITROGEN,[3],18.33 mg/dL
same,CARBON DIOXIDE,[3],25.67 mmol/L
same,CHLORIDE,[3],100 MEQ/L
same,CHOLESTEROL,[3],227.67 mg/dL
same,CREATINE PHOSPHOKINASE,[3],489.33 u/L
same,CREATININE,[3],0.22 mg/dL
same,GLUCOSE,[3],124.33 mg/dL
same,LACTATE DEHYDROGENASE,[3],134 u/L
same,LIPASE,[3],12.67 u/L
same,PHOSPHORUS,[3],12.77 mg/dL
same,POTASSIUM,[3],6.56 MEQ/L
same,SODIUM,[3],145.37 MEQ/L
same,TOTAL BILIRUBIN,[3],0.2 mg/dL
same,TOTAL PROTEIN,[3],6.2 G/DL
same,URIC ACID,[3],1.77 mg/dL
